Assays:
Type in all cases: in vivo
Viola tricolor [1] = assay: Pre-emergence herbicidal action against harmful plants; conditions: application rate 320 g/ha, scored visually after 3 weeks, 100% = plants have died, 0% = like control plants
From the text: (§1) Seeds of monocotyledonous and dicotyledonous weed plants and crop plants are laid out in wood-fiber pots in sandy loam and covered with soil. The compounds of the invention, formulated in the form of wettable powders (WP) or as emulsion concentrates (EC), are then applied to the surface of the covering soil in the form of an aqueous suspension or emulsion at a water application rate equating to 600 to 800 I/ha, with addition of 0.2% wetting agent. After the treatment, the pots are placed in a greenhouse and kept under good growth conditions for the trial plants. The damage to the trial plants is scored visually after a trial duration of 3 weeks by comparison with untreated controls (herbicidal activity in percent (%): 100% efficacy=the plants have died, 0% efficacy=like control plants). In this trial, for example, compound no.

Setaria viridis [2] = assay: as above; conditions: application rate 320 g/ha, scored visually after 3 weeks, 100% = plants have died, 0% = like control plants
From the text: as §1

Matricaria inodora [3] = assay: as above; conditions: application rate 320 g/ha, scored visually after 3 weeks, 100% = plants have died, 0% = like control plants
From the text: as §1

Echinochloa crus galli [4] = assay: as above; conditions: application rate 320 g/ha, scored visually after 3 weeks, 100% = plants have died, 0% = like control plants
From the text: as §1

Veronica persica [5] = assay: as above; conditions: application rate 320 g/ha, scored visually after 3 weeks, 100% = plants have died, 0% = like control plants
From the text: as §1

Amaranthus retroflexus [6] = assay: as above; conditions: application rate 320 g/ha, scored visually after 3 weeks, 100% = plants have died, 0% = like control plants
From the text: as §1

Abutilon theophrasti = assay: as above; conditions: application rate 320 g/ha, scored visually after 3 weeks, 100% = plants have died, 0% = like control plants
From the text: as §1

Stellaria media [7] = assay: as above; conditions: application rate 320 g/ha, scored visually after 3 weeks, 100% = plants have died, 0% = like control plants
From the text: as §1

Ipomoea purpurea = assay: Post-emergence herbicidal action against harmful plants; conditions: application rate 80 g/ha, scored visually after about 3 weeks, 100% = plants have died, 0% = like control plants
Experimental: (§2) Seeds of monocotyledonous and dicotyledonous weed and crop plants are laid out in sandy loam in wood-fiber pots, covered with soil and cultivated in a greenhouse under good growth conditions. 2 to 3 weeks after sowing, the trial plants are treated at the one-leaf stage. The compounds of the invention, formulated in the form of wettable powders (WP) or as emulsion concentrates (EC), are then sprayed onto the green parts of the plants in the form of an aqueous suspension or emulsion at a water application rate equating to 600 to 800 I/ha, with addition of 0.2% wetting agent. After the trial plants have been left to stand in a greenhouse under optimal growth conditions for about 3 weeks, the efficacy of the formulations is scored visually in comparison to untreated controls (herbicidal action in percent (%): 100% efficacy=the plants have died, 0% efficacy=like control plants). In this trial, for example, compound no.

Viola tricolor [8] = assay: as above; conditions: application rate 80 g/ha, scored visually after about 3 weeks, 100% = plants have died, 0% = like control plants
Experimental: as §2

Setaria viridis [9] = assay: as above; conditions: application rate 80 g/ha, scored visually after about 3 weeks, 100% = plants have died, 0% = like control plants
Experimental: as §2

Matricaria inodora [10] = assay: as above; conditions: application rate 80 g/ha, scored visually after about 3 weeks, 100% = plants have died, 0% = like control plants
Experimental: as §2

Echinochloa crus galli [11] = assay: as above; conditions: application rate 80 g/ha, scored visually after about 3 weeks, 100% = plants have died, 0% = like control plants
Experimental: as §2

Veronica persica [12] = assay: as above; conditions: application rate 80 g/ha, scored visually after about 3 weeks, 100% = plants have died, 0% = like control plants
Experimental: as §2

Amaranthus retroflexus [13] = assay: as above; conditions: application rate 80 g/ha, scored visually after about 3 weeks, 100% = plants have died, 0% = like control plants
Experimental: as §2

Stellaria media [14] = assay: as above; conditions: application rate 80 g/ha, scored visually after about 3 weeks, 100% = plants have died, 0% = like control plants
Experimental: as §2

Cc1cnn(-c2ccc(C(F)(F)F)c(=O)n2C)c(=O)c1O [1-3, 4-hydroxy-5-methyl-2-(1-methyl-3-(trifluoromethyl)pyrid-2-on-6-yl)-pyridazin-3-one]
at least 80%: herbicidal activity in percent (efficacy) (Viola tricolor [1]) | herbicidal activity in percent (efficacy) (Setaria viridis [2]) | herbicidal activity in percent (efficacy) (Matricaria inodora [3]) | herbicidal activity in percent (efficacy) (Echinochloa crus galli [4]) | herbicidal activity in percent (efficacy) (Veronica persica [5]) | herbicidal activity in percent (efficacy) (Amaranthus retroflexus [6]) | herbicidal activity in percent (efficacy) (Abutilon theophrasti) | herbicidal activity in percent (efficacy) (Stellaria media [7]) | herbicidal action in percent (efficacy) (Ipomoea purpurea) | herbicidal action in percent (efficacy) (Viola tricolor [8]) | herbicidal action in percent (efficacy) (Setaria viridis [9]) | herbicidal action in percent (efficacy) (Matricaria inodora [10]) | herbicidal action in percent (efficacy) (Echinochloa crus galli [11]) | herbicidal action in percent (efficacy) (Veronica persica [12]) | herbicidal action in percent (efficacy) (Amaranthus retroflexus [13]) | herbicidal action in percent (efficacy) (Stellaria media [14])

Reference: US20160326135A1, “2-HETARYL-PYRIDAZINONE DERIVATIVES AND THEIR USE AS HERBICIDES” (BAYER CROPSCIENCE AKTIENGESELLSCHAFT, priority 2013, published 2016)
